The results in this text go back to ChEMBL document CHEMBL3867437, “Oryzamides A-E, Cyclodepsipeptides from the Sponge-Derived Fungus Nigrospora oryzae PF18” (J Nat Prod, 2016).

Converted amounts (≈) assume the structure as drawn.

Test [1] can be described thus: Cytotoxicity against human HeLa cells after 48 hrs by MTT assay. In kind it is functional, cell-based.
Test [2] concerns Staphylococcus aureus. Briefly: Antibacterial activity against methicillin-sensitive Staphylococcus aureus ATCC 25923 after 24 hrs by spectrophotometric analysis. In kind it is functional. To be noted: ATCC 25923, 24 h.
Test [3] concerns Staphylococcus aureus. Briefly: Antibacterial activity against methicillin-resistant Staphylococcus aureus ATCC 43300 after 24 hrs by spectrophotometric analysis. In kind it is functional. To be noted: ATCC 43300, 24 h.
Another test relates to Escherichia coli. As to the kind of experiment: Antibacterial activity against Escherichia coli ATCC 25922 after 24 hrs by spectrophotometric analysis. In kind it is functional. The note with it: ATCC 25922, 24 h.

Turning to `CCCCCC[C@H](C)[C@@H]1CC(=O)NCC(=O)N[C@@H](C(C)C)C(=O)N[C@H](CC(C)C)C(=O)N[C@@H](C)C(=O)N[C@@H](CCSC)C(=O)O1`, the half-maximal inhibitory concentration (IC50) in test [1] worked out at 31.3 µM.
In test [1], `CCCCCC[C@H](C)[C@@H]1CC(=O)NCC(=O)N[C@@H](C(C)C)C(=O)N[C@H](CC(C)C)C(=O)N[C@@H](C)C(=O)N[C@@H](CC(C)C)C(=O)O1` yielded a half-maximal inhibitory concentration (IC50) of 25.7 µM.
Consider `CCCCCC[C@H](C)[C@@H]1CC(=O)NCC(=O)N[C@@H](C(C)C)C(=O)N[C@H](CC(C)C)C(=O)N[C@@H](C)C(=O)N[C@@H](Cc2ccc(O)cc2)C(=O)O1`, for which it took 12.4 µM to reach half-maximal inhibition in test [1] (IC50).
`O=C(N[C@H](CO)[C@H](O)c1ccc([N+](=O)[O-])cc1)C(Cl)Cl` [CHLORAMPHENICOL]: the MIC came out at 2 µg/mL (≈ 6.19 µM) in the test with Staphylococcus aureus [2], 4 µg/mL (≈ 12.4 µM) against Staphylococcus aureus [3] and 2 µg/mL (≈ 6.19 µM) in the test on Escherichia coli.
